ChEMBL document CHEMBL1255467, “Comparative in vitro antimicrobial activities of torezolid (TR-700), the active moiety of a new oxazolidinone, torezolid phosphate (TR-701), determination of tentative disk diffusion interpretive criteria, and quality control ranges” (2010)
≈ marks a conversion by molar mass, not a printed value.

Tests used:
Staphylococcus aureus [1] = assay: Antimicrobial activity against linezolid-resistant Staphylococcus aureus by broth dilution method; assay type: functional
Staphylococcus aureus [2] = assay: Antimicrobial activity against methicillin-resistant Staphylococcus aureus by broth dilution method; assay type: functional; conditions: Staphylococcus aureus
Staphylococcus aureus [3] = assay: Antimicrobial activity against methicillin-susceptible Staphylococcus aureus by broth dilution method; assay type: functional
Staphylococcus aureus [4] = assay: Antimicrobial activity against Staphylococcus aureus by broth dilution method; assay type: functional
Staphylococcus sp. [5] = assay: Antimicrobial activity against Staphylococcus sp. by broth dilution method; assay type: functional
Staphylococcus sp. [6] = assay: Antimicrobial activity against methicillin-resistant coagulase-negative Staphylococcus by broth dilution method; assay type: functional
Staphylococcus aureus [7] = assay: Antimicrobial activity against vancomycin-nonsusceptible Staphylococcus aureus by broth dilution method; assay type: functional
Staphylococcus sp. [8] = assay: Antimicrobial activity against methicillin-susceptible coagulase-negative Staphylococcus by broth dilution method; assay type: functional
Enterococcus sp. = assay: Antimicrobial activity against Enterococcus by broth dilution method; assay type: functional
Enterococcus faecalis [9] = assay: Antimicrobial activity against vancomycin-resistant Enterococcus faecalis by broth dilution method; assay type: functional
Enterococcus faecalis [10] = assay: Antimicrobial activity against vancomycin-susceptible Enterococcus faecalis by broth dilution method; assay type: functional
Enterococcus faecium [11] = assay: Antimicrobial activity against vancomycin-resistant Enterococcus faecium by broth dilution method; assay type: functional
Enterococcus faecium [12] = assay: Antimicrobial activity against vancomycin-susceptible Enterococcus faecium by broth dilution method; assay type: functional
Streptococcus pneumoniae [13] = assay: Antimicrobial activity against Streptococcus pneumoniae by broth dilution method; assay type: functional
Streptococcus pneumoniae [14] = assay: Antimicrobial activity against penicillin-susceptible Streptococcus pneumoniae by broth dilution method; assay type: functional
Streptococcus pneumoniae [15] = assay: Antimicrobial activity against penicillin-intermediate Streptococcus pneumoniae by broth dilution method; assay type: functional
Streptococcus pneumoniae [16] = assay: Antimicrobial activity against penicillin-resistant Streptococcus pneumoniae by broth dilution method; assay type: functional
Streptococcus viridans = assay: Antimicrobial activity against Streptococcus viridans by broth dilution method; assay type: functional
Corynebacterium jeikeium = assay: Antimicrobial activity against Corynebacterium jeikeium by broth dilution method; assay type: functional
Listeria monocytogenes = assay: Antimicrobial activity against Listeria monocytogenes by broth dilution method; assay type: functional
Moraxella catarrhalis = assay: Antimicrobial activity against Moraxella catarrhalis by broth dilution method; assay type: functional
Haemophilus influenzae [17] = assay: Antimicrobial activity against Haemophilus influenzae by broth dilution method; assay type: functional
Haemophilus influenzae [18] = assay: Antimicrobial activity against beta-lactamase negative Haemophilus influenzae by broth dilution method; assay type: functional
Haemophilus influenzae [19] = assay: Antimicrobial activity against beta-lactamase positive Haemophilus influenzae by broth dilution method; assay type: functional
Haemophilus influenzae [20] = assay: Antimicrobial activity against ampicillin-nonsusceptible beta-lactamase negative Haemophilus influenzae by broth dilution method; assay type: functional
Streptococcus sp = assay: Antimicrobial activity against streptococcal sp. by broth dilution method

## CC(=O)NC[C@H]1CN(c2ccc(N3CCOCC3)c(F)c2)C(=O)O1 [LINEZOLID]
Staphylococcus aureus [1]
  MBC: > 8 µg/mL
  MIC50: > 8 µg/mL
  MIC90: > 8 µg/mL
Staphylococcus aureus [2]
  MIC50: 2 µg/mL (≈ 5.93 µM)
  MIC90: 4 µg/mL (≈ 11.9 µM)
Staphylococcus aureus [3]
  MBC50: >8 µg/mL
  MBC90: >8 µg/mL
Staphylococcus aureus [3]; Staphylococcus aureus
  MBC: > 4 µg/mL
  MIC50: 2 µg/mL (≈ 5.93 µM)
  MIC90: 2 µg/mL (≈ 5.93 µM)
Staphylococcus aureus [4]
  MBC50: 8 µg/mL (≈ 23.7 µM)
  MBC90: >8 µg/mL
Staphylococcus aureus [4]; Staphylococcus aureus
  MBC: > 2 µg/mL
  MIC50: 2 µg/mL (≈ 5.93 µM)
  MIC90: 2 µg/mL (≈ 5.93 µM)
Staphylococcus sp. [5]
  MBC50: 8 µg/mL (≈ 23.7 µM)
  MBC90: >8 µg/mL
Staphylococcus sp. [5]; Staphylococcus sp.
  MBC: > 2 µg/mL
  MIC50: 2 µg/mL (≈ 5.93 µM)
  MIC90: 2 µg/mL (≈ 5.93 µM)
Staphylococcus sp. [6]
  MBC: > 8 µg/mL
  MIC50: 1 µg/mL (≈ 2.96 µM)
  MIC90: 4 µg/mL (≈ 11.9 µM)
Staphylococcus aureus [7]
  MBC50: 2 µg/mL (≈ 5.93 µM)
  MBC90: 4 µg/mL (≈ 11.9 µM)
Staphylococcus aureus [7]; Staphylococcus aureus
  MBC: 2 µg/mL (≈ 5.93 µM)
  MIC50: 2 µg/mL (≈ 5.93 µM)
  MIC90: 4 µg/mL (≈ 11.9 µM)
Staphylococcus sp. [8]
  MBC50: >8 µg/mL
  MBC90: >8 µg/mL
Staphylococcus sp. [8]; Staphylococcus sp.
  MBC: > 2 µg/mL
  MIC50: 1 µg/mL (≈ 2.96 µM)
  MIC90: 2 µg/mL (≈ 5.93 µM)
Enterococcus sp.
  MBC50: >8 µg/mL
  MBC90: >8 µg/mL
Enterococcus sp.; Enterococcus sp.
  MBC: > 4 µg/mL
  MIC50: 2 µg/mL (≈ 5.93 µM)
  MIC90: 2 µg/mL (≈ 5.93 µM)
Enterococcus faecalis [9]
  MIC50: 2 µg/mL (≈ 5.93 µM)
  MIC90: 2 µg/mL (≈ 5.93 µM)
Enterococcus faecalis [10]
  MBC50: >8 µg/mL
  MBC90: >8 µg/mL
Enterococcus faecalis [10]; Enterococcus faecalis
  MBC: > 8 µg/mL
  MIC50: 2 µg/mL (≈ 5.93 µM)
  MIC90: 2 µg/mL (≈ 5.93 µM)
Enterococcus faecium [11]
  MBC: > 4 µg/mL
  MIC50: 2 µg/mL (≈ 5.93 µM)
  MIC90: 4 µg/mL (≈ 11.9 µM)
Enterococcus faecium [12]
  MBC50: >8 µg/mL
  MBC90: >8 µg/mL
Enterococcus faecium [12]; Enterococcus faecium
  MBC: > 8 µg/mL
  MIC: 2 µg/mL (≈ 5.93 µM)
  MIC50: 2 µg/mL (≈ 5.93 µM)
  MIC90: 2 µg/mL (≈ 5.93 µM)
Streptococcus pneumoniae [13]
  MBC50: 4 µg/mL (≈ 11.9 µM)
  MBC90: 8 µg/mL (≈ 23.7 µM)
Streptococcus pneumoniae [13]; Streptococcus pneumoniae
  MBC: > 2 µg/mL
  MIC50: 1 µg/mL (≈ 2.96 µM)
  MIC90: 2 µg/mL (≈ 5.93 µM)
Streptococcus pneumoniae [14]
  MBC50: 4 µg/mL (≈ 11.9 µM)
  MBC90: 8 µg/mL (≈ 23.7 µM)
Streptococcus pneumoniae [14]; Streptococcus pneumoniae
  MBC: > 2 µg/mL
  MIC50: 1 µg/mL (≈ 2.96 µM)
  MIC90: 2 µg/mL (≈ 5.93 µM)
Streptococcus pneumoniae [15]
  MBC50: 4 µg/mL (≈ 11.9 µM)
  MBC90: 8 µg/mL (≈ 23.7 µM)
Streptococcus pneumoniae [15]; Streptococcus pneumoniae
  MBC: > 2 µg/mL
  MIC50: 1 µg/mL (≈ 2.96 µM)
  MIC90: 2 µg/mL (≈ 5.93 µM)
Streptococcus pneumoniae [16]
  MBC: 4 µg/mL (≈ 11.9 µM)
  MIC50: 1 µg/mL (≈ 2.96 µM)
  MIC90: 2 µg/mL (≈ 5.93 µM)
Streptococcus viridans
  MIC50: 2 µg/mL (≈ 5.93 µM)
  MIC90: 2 µg/mL (≈ 5.93 µM)
Corynebacterium jeikeium
  MIC50: 1 µg/mL (≈ 2.96 µM)
  MIC90: 1 µg/mL (≈ 2.96 µM)
Listeria monocytogenes
  MIC: 2 µg/mL (≈ 5.93 µM)
  MIC50: 2 µg/mL (≈ 5.93 µM)
  MIC90: 2 µg/mL (≈ 5.93 µM)
Moraxella catarrhalis
  MIC: 8 µg/mL (≈ 23.7 µM)
  MIC50: 8 µg/mL (≈ 23.7 µM)
  MIC90: 8 µg/mL (≈ 23.7 µM)
Haemophilus influenzae [17]
  MBC50: >8 µg/mL
  MBC90: >8 µg/mL
Haemophilus influenzae [17]; Haemophilus influenzae
  MBC: > 8 µg/mL
  MIC50: > 8 µg/mL
  MIC90: > 8 µg/mL
Haemophilus influenzae [18]
  MBC50: >8 µg/mL
  MBC90: >8 µg/mL
Haemophilus influenzae [18]; Haemophilus influenzae
  MBC: > 8 µg/mL
  MIC50: > 8 µg/mL
  MIC90: > 8 µg/mL
Haemophilus influenzae [19]
  MBC50: >8 µg/mL
  MBC90: >8 µg/mL
Haemophilus influenzae [19]; Haemophilus influenzae
  MBC: > 8 µg/mL
  MIC: > 8 µg/mL
  MIC50: > 8 µg/mL
Haemophilus influenzae [19]; Haemophilus influenzae, read-out: MIC90
  MIC90: > 8 µg/mL
Haemophilus influenzae [20]
  MBC50: >8 µg/mL
  MBC90: >8 µg/mL
Haemophilus influenzae [20]; Haemophilus influenzae
  MBC: > 8 µg/mL
  MIC: > 8 µg/mL
  MIC50: > 8 µg/mL
  MIC90: > 8 µg/mL
Streptococcus sp
  MBC50: 8 µg/mL (≈ 23.7 µM)
  MBC90: >8 µg/mL
Streptococcus sp; Streptococcus sp.
  MBC: > 2 µg/mL
  MIC50: 1 µg/mL (≈ 2.96 µM)
  MIC90: 2 µg/mL (≈ 5.93 µM)
